# In patent US9107942B2, “Methods of diagnosing and treating fibrosis” (University of Rochester, priority 2008, dated 2015):
# “Also recorded” adds a separate entry of the source.
# Assays:
# YY1 promoter [1] = test: YY1 promoter-luciferase reporter (YY1-LUC) in WI-38 cells; assay type: cell-based, human; conditions: YY1-Luc-transfected WI-38 cells
# Protocol: (§1) FIGS. 7A and 7B are immunoblots of human WI-38 cells (FIG. 7A) and mouse MLg2908 cells (FIG. 7B) treated with TGF-β. After serum starvation for 24 hours, cells were treated with 10 ng/ml of TGF-β for the indicated times in serum-free DMEM. Extracts from whole cells were subjected to immunoblot analysis with anti-YY1 or anti-β-actin antibody. FIGS. 7C and 7D are graphs showing the relative fold induction of YY-1 mRNA expression, detected by quantitative PCR, in WI-38 cells (FIG. 7C) and MLg2908 cells (FIG. 7D) treated with TGF-β. FIGS. 7E and 7F are graphs relating to the YY1 promoter activity in YY1-Luc-transfected WI-38 cells (FIG. 7E) and YY1-Luc-transfected MLg2908 cells (FIG. 7F) treated with PBS or TGF-β for 24 hours. The full-length YY1 promoter-luciferase reporter (YY1-LUC) was transfected into the cells by electroporation. Relative light units (RLU) were measured with a luminometer. Fold changes result from the RLU of stimulated cells divided by the RLU of non-stimulated cells. […]
# (§2) FIGS. 9A and 9B are immunoblots of human WI-38 cells (FIG. 9A) and mouse MLg2908 cells (FIG. 9B) treated with TNF-α. […] FIGS. 9C and 9D are graphs showing the relative fold induction of YY-1 mRNA expression, detected by quantitative PCR, in WI-38 cells (FIG. 9C) and MLg2908 cells (FIG. 9D) treated with TGF-β. […] Relative light units (RLU) were measured with a luminometer. […]
# YY1 promoter [2] = test: YY1 promoter-luciferase reporter (YY1-LUC) in MLg2908 cells; assay type: cell-based, mouse; conditions: YY1-Luc-transfected MLg2908 cells
# Protocol: as §1, §2
# YY1 expression [3] = test: YY1 expression in stimulated MLg2908 lung fibroblasts (immunoblot, quantitative PCR); assay type: cell-based, mouse; conditions: MLg2908 cells; for YY1 transcript levels: quantitative PCR; for YY1 expression: serum-free DMEM, 10 ng/ml cytokine or 40 μg/ml silica, immunoblot
# Protocol: (§3) FIGS. 7A and 7B are immunoblots of human WI-38 cells (FIG. 7A) and mouse MLg2908 cells (FIG. 7B) treated with TGF-β. After serum starvation for 24 hours, cells were treated with 10 ng/ml of TGF-β for the indicated times in serum-free DMEM. Extracts from whole cells were subjected to immunoblot analysis with anti-YY1 or anti-β-actin antibody. FIGS. 7C and 7D are graphs showing the relative fold induction of YY-1 mRNA expression, detected by quantitative PCR, in WI-38 cells (FIG. 7C) and MLg2908 cells (FIG. 7D) treated with TGF-β. FIGS. 7E and 7F are graphs relating to the YY1 promoter activity in YY1-Luc-transfected WI-38 cells (FIG. 7E) and YY1-Luc-transfected MLg2908 cells (FIG. 7F) treated with PBS or TGF-β for 24 hours. The full-length YY1 promoter-luciferase reporter (YY1-LUC) was transfected into the cells by electroporation. Relative light units (RLU) were measured with a luminometer. Fold changes result from the RLU of stimulated cells divided by the RLU of non-stimulated cells. The data are presented with standard errors derived from at least three independent experiments performed in triplicate. *p<0.05 and **p<0.01 by the Student's t-test.
# FIGS. 9A and 9B are immunoblots of human WI-38 cells (FIG. 9A) and mouse MLg2908 cells (FIG. 9B) treated with TNF-α. After serum starvation for 24 hours, cells were treated with 10 ng/ml of TNF-α for the indicated times in serum-free DMEM. Extracts from whole cells were subjected to immunoblot analysis with anti-YY1 or anti-β-actin antibody. FIGS. 9C and 9D are graphs showing the relative fold induction of YY-1 mRNA expression, detected by quantitative PCR, in WI-38 cells (FIG. 9C) and MLg2908 cells (FIG. 9D) treated with TGF-β. FIGS. 9E and 9F are graphs relating to the YY1 promoter activity in YY1-Luc-transfected WI-38 cells (FIG. 9E) and YY1-Luc-transfected MLg2908 cells (FIG. 9F) treated with TNF-α for 8 hours. The full-length YY1 promoter-luciferase reporter (YY1-LUC) was transfected into the cells by electroporation. Relative light units (RLU) were measured with a luminometer. Fold changes result from the RLU of stimulated cells divided by the RLU of non-stimulated cells. […]
# Total RNA from lung tissue and lung fibroblasts was extracted using TRIzol® reagent (Invitrogen). […] Quantitative PCR was performed using an iQ5 Biorad device. Data were analyzed by the 2^−Δ(Δ/CT^) method and normalized to the expression of the GAPDH housekeeping gene.
# (§4) Cells or lung tissues were solubilized in lysis buffer (50 mM Tris/HCl (pH 8.0), 150 mM NaCl, 0.1% SDS, 0.5% sodium deoxycholate, 0.02% Na3N, 1% Nonidet P40, 1 mM PMSF, and 2 μg/ml aprotinin). Protein concentrations were determined by a BCA assay. […]
# YY1 promoter [4] = test: YY1 promoter-luciferase reporter (YY1-LUC) in MRC5 cells; assay type: cell-based, human; conditions: YY1-LUC-transfected MRC5 cells, 24 hours
# Protocol: (§5) FIG. 8A is an immunoblot of whole cell extracts from MRC5 cells treated with TGF-β for 8 hours. FIG. 8B is a graph of the relative light units of YY1-Lluc-transfected MRC5 cells treated with phosphate-buffered saline (“0”) or TGF-β (“10”) for 24 hours. The data are presented with standard errors derived from at least three independent experiments performed in triplicate. *p<0.05 by the Student's t-test.
# (§6) After serum starvation for 24 hours, MRC5 cells were treated with 10 ng/ml of TGF-β for 8 hours or 24 hours in serum-free DMEM. Extracts from whole cells treated with TGF-β for 8 hours were subjected to immunoblot analysis with anti-YY1 or anti-β-actin antibody. […] MRC5 cells transfected with the full-length YY1 promoter-luciferase reporter (YY1-LUC) by electroporation were treated with PBS or TGFβ for 24 hours, and the relative light units (RLU) were measured with a luminometer.
# YY1 expression [5] = test: YY1 expression in stimulated WI-38 lung fibroblasts (immunoblot, quantitative PCR); assay type: cell-based, human; conditions: WI-38 cells; for YY1 transcript levels: quantitative PCR
# Protocol: as §3
# FIGS. 9A and 9B are immunoblots of human WI-38 cells (FIG. 9A) and mouse MLg2908 cells (FIG. 9B) treated with TNF-α. After serum starvation for 24 hours, cells were treated with 10 ng/ml of TNF-α for the indicated times in serum-free DMEM. Extracts from whole cells were subjected to immunoblot analysis with anti-YY1 or anti-β-actin antibody. FIGS. 9C and 9D are graphs showing the relative fold induction of YY-1 mRNA expression, detected by quantitative PCR, in WI-38 cells (FIG. 9C) and MLg2908 cells (FIG. 9D) treated with TGF-β. FIGS. 9E and 9F are graphs relating to the YY1 promoter activity in YY1-Luc-transfected WI-38 cells (FIG. 9E) and YY1-Luc-transfected MLg2908 cells (FIG. 9F) treated with TNF-α for 8 hours. The full-length YY1 promoter-luciferase reporter (YY1-LUC) was transfected into the cells by electroporation. Relative light units (RLU) were measured with a luminometer. Fold changes result from the RLU of stimulated cells divided by the RLU of non-stimulated cells. The data are presented with standard errors derived from at least three independent experiments performed in triplicate. *p<0.05, **p<0.01, and ***p<0.001 by the Student's t-test.
# After serum starvation for 24 hours, cells were treated with 40 μg/ml of silica for the indicated time periods in serum-free DMEM. Extracts from WI-38 (FIG. 10A) or MLg2908 (FIG. 10B) cells were immunoblotted with anti-YY1 or anti-β-actin antibodies.
# FIG. 18 is an immunoblot showing YYI in WI-38 cells that were unstimulated (“Resting”) or treated with IL-1β ([…]). Immunoblots were performed on Day 1 and Day 2 using anti-YY1 and anti-GAPDH antibodies.
# Total RNA from lung tissue and lung fibroblasts was extracted using TRIzol® reagent (Invitrogen). Then, 0.5-1 μg of total RNA was reverse-transcribed using oligo dT as a primer. Quantitative PCR was performed using an iQ5 Biorad device. Data were analyzed by the 2^−Δ(Δ/CT^) method and normalized to the expression of the GAPDH housekeeping gene.
# as §4, with “assay. Protein samples (20 μg) were separated in 8-16% SDS/PAGE gels and transferred onto a nitrocellulose membrane.” for “assay.”
# YY1 expression [6] = test: YY1 immunoblot in MRC5 human adult fibroblasts; assay type: cell-based; conditions: MRC5 cells, 10 ng/ml for 8 hours
# Protocol: as §5, §6
# B cells = conditions: cited from earlier work
# YY1 expression [7] = test: YY1 immunoblot in TGF-β-stimulated WI-38 cells pre-treated with NF-κB inhibitor; assay type: cell-based, human; conditions: WI-38 cells pre-treated with 5 μM for one hour, then 10 ng/ml TGF-β in serum-free DMEM
# Protocol: FIG. 12A is a graph of the relative fold induction of YY1 mRNA expression in WI-38 cells transfected with a wild-type YY1 promoter construct (“YY1”). FIG. 12B is a graph of the relative fold induction of YY1 mRNA expression in WI-38 cells transfected with a mutant YY1 promoter contruct that has a disrupted NF-κB binding site (“mutant YY1”). In both cases, the cells were also transiently co-transfected with a vector control (“pSG5”) or 2.5 μg of NF-κB (“p65”) plasmid by electroporation, and then treated with PBS or 10 ng/ml of TGF-β for 24 hours. Data are presented with standard errors derived from at least three independent experiments performed in triplicate. ***P<0.001 (untreated pSG5 vs. untreated p65; TGF-β-treated pSG5 vs. TGF-β-treated p65). FIG. 12C is an immunoblot of WI-38 cells pre-treated with 5 μM of Bay 11-7085 (an NF-κB inhibitor) for one hour and then treated with 10 ng/ml of TGF-β for the indicated times in serum-free DMEM. Extracts from whole cells were immunoblotted with anti-YY1 or anti-β-actin antibody.
# as §4, with “assay. Protein samples (20 μg) were separated in 8-16% SDS/PAGE gels and transferred onto a nitrocellulose membrane.” for “assay.”
# YY1 expression [8] = test: YY1 western blot in IC-21 alveolar macrophages; assay type: cell-based; conditions: TNF-α 10 ng/ml or silica 20 μg/ml, two days
# Protocol: FIG. 11 is a western blot of unstimulated (“resting”) IC-21 alveolar macrophages or IC-21 cells stimulated with TNF-α (10 ng/ml) or silica (20 μg/ml). After two days, the cells were harvested and YY1 expression was determined using anti-YY1 and anti-GAPDH antibodies.
# In addition to the indirect effects of lung inflammation, crystalline silica can activate cells directly through distinct molecular pathways (Hornung et al., “Silica Crystals and Aluminum Salts Activate the NALP3 Inflammasome Through Phagosomal Destabilization,” Nat. Immunol. 9(8):847-56 (2008); Dostert et al., “Innate Immune Activation Through Nalp3 Inflammasome Sensing of Asbestos and Silica,” Science 320(5876):674-77 (2008), each of which is hereby incorporated by reference in its entirety). Therefore, whether silica particles directly regulate YY1 expression in fibroblasts was tested by incubating cells for up to 8 hours in vitro with a fixed concentration of silica.
# human tumor cells = conditions: cited from earlier work
# lung fibroblasts = conditions: cited from earlier work
# [9] = serum-free DMEM, 10 ng/ml cytokine or 40 μg/ml silica, immunoblot
Compound,YY1 promoter activity (YY1 promoter [1]),YY1 promoter activity (YY1 promoter [2]),YY1 transcript levels (YY1 expression [3]),YY1 expression (YY1 expression [3]),YY1 transcript levels (YY1 expression [5]),YY1 expression (YY1 expression [5]; [9]),also measured
TGF-β: profibrotic cytokine used to stimulate lung fibroblasts,significantly increased,significantly increased,upregulated,upregulated,upregulated,upregulated,YY1-LUC activity (YY1 promoter [4]): up-regulated; YY1 expression (YY1 expression [6]): up-regulated
Rituximab: anti-CD20 antibody used for treating B cell non-Hodgkin's lymphoma,,,,,,,NF-κB expression (B cells): diminished; YY1 expression (B cells): diminished
IL-1β: cytokine used to treat WI-38 cells,,,,,,,"YY1 expression (YY1 expression [5]; Day 1 and Day 2, immunoblot): upregulated"
CC(C)(C)c1ccc(S(=O)(=O)/C=C/C#N)cc1 [Bay11-7085],,,,,,,YY1 expression (YY1 expression [7]): abolished
TNF-α,upregulated,upregulated,upregulated,increased,upregulated,increased,YY1 expression (YY1 expression [8]): neither silica nor TNF-α affected; also recorded: slightly decreased
[N]=O [Nitric oxide],,,,,,,YY1 expression (human tumor cells): inhibit; YY1 expression (lung fibroblasts): inhibit
